How the values were obtained:
Type in all cases: cell-based
A375 cells [1] = assay: MTT cell viability assay, A375; conditions: 72 h; for Effect on cell viability at single concentration: A375, 25 μM, MTT; for IC50: Homo sapiens, A-375, A375, MTT
Experimental: (§1) A375, MRC-5, and HaCaT cell lines were obtained from the American Type Culture Collection (ATCC). 518A2 cell line was kindly provided by Dr. […]ć. All cell lines were cultured in RPMI 1640 medium supplemented with 2 g/L glucose, 10% fetal bovine serum (FBS), and antibiotics. […] Cell viability was assessed using the MTT assay (Sigma Aldrich, #M5655). […] After 72 h of incubation, absorbance was measured at 570 nm using a Multiskan SkyHigh microplate reader (Thermo Fisher Scientific, Helsinki, Finland). Values were corrected by subtracting the absorbance measured in wells containing cell-free medium with tested compounds.

A375R cells = assay: MTT cell viability assay, vemurafenib-resistant A375R; conditions: for IC50: A375R, MTT, 72 h
Experimental: as §1

[2] = tested on: HaCaT (human keratinocytes); assay: MTT cell viability assay, HaCaT; conditions: 72 h
Experimental: as §1

[3] = tested on: MRC-5 (fetal fibroblasts); assay: MTT cell viability assay, MRC-5; conditions: Homo sapiens, MRC5; MRC-5, MTT, 72 h
Experimental: as §1

A375 cells [4] = assay: Cellular uptake and subcellular distribution by LC-MS/MS; conditions: A375, 25 μM, 24 h; for Compound accumulation normalized to telmisartan, Chromatin Bound: chromatin-bound nuclear fraction; for Compound accumulation normalized to telmisartan, Cytoplasm: cytoplasmic fraction; for Compound accumulation normalized to telmisartan, Cytoskeleton: cytoskeletal fraction; for Compound cell accumulation normalized to telmisartan, Whole Lysate: μmol compound per μg cell protein normalized to telmisartan
Experimental: Cells were then trypsinized, washed with PBS and pelleted. For whole cell lysates, cell pellet was dissolved in RIPA buffer on ice. Fractions and whole cell lysates were stored at -80 °C until use. Protein concentration of lysates was determined with Pierce BCA Protein assay kit (Thermo Fisher #23225), and cell accumulation was calculated as μmol of compound per μg of cell protein and normalized to telmisartan. Concentrations of telmisartan and its derivatives were determined using liquid chromatography-tandem mass spectrometry (LC-MS/MS) method in positive HESI mode. The analysis was performed on UHPLC chromatograph […] (Thermo Fisher Scientific Inc., Madison, WI, USA), coupled to a triple quadrupole mass spectrometer TSQ Quantum Access MAX (Thermo Fisher Scientific Inc., Madison, WI, USA) with heated electrospray ionization (HESI) interface. The column was Zorbax Extend C18 (150 mm × 4.6 mm, 5 μm particle size). […] Experiment was repeated twice.

AT1R = molecular target: T1, AT1R (Homo sapiens, UniProt P30556); assay: Angiotensin II-induced Ca2+ release, Fluo-4 AM live-cell imaging; conditions: 2 min; for Effect on AngII-induced Ca2+ increase (combination treatment): A375, 25 μM compound + 1 μM AngII; for Effect of compound alone on baseline Ca2+ signaling: A375, compound alone
T1 construct: endogenous in cells; host or cells: A375 melanoma cells (ATCC)
T1 sequence (P30556 1-359): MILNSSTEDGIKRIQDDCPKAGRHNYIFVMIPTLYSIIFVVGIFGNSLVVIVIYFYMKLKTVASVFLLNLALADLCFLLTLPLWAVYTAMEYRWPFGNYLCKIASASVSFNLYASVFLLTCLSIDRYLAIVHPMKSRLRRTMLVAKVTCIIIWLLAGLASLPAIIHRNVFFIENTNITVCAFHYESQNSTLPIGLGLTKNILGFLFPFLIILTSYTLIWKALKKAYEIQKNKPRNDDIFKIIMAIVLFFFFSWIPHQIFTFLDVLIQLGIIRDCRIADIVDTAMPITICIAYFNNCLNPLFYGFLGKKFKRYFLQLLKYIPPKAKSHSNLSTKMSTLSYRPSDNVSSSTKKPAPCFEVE
Experimental: Fluo-4 AM calcium indicator dye (F14201, Molecular Probes, Eugene, OR, USA) was used to observe Ca^2+ dynamics upon treatment, per manufacturer’s instructions. Briefly, 5000 A375 cells/well were seeded in 96-well optical bottom black cell culture plates (165305, Thermo Scientific). Fluo-4 AM stock solution in DMSO was mixed with equal volume of 20% Pluronic F-127 to assist in dispersion of AM esters before dilution into the loading medium. Twenty-four hours after seeding medium was removed, and cells were washed with HBBS without calcium and magnesium. Cells were stained in HBSS medium with 1.25 μM Fluo-4-AM for 30 min at 37 °C. After incubation, cells were washed and incubated in complete medium (10%FBS RPMI) to allow de-esterification for 30 min and then treated with 1 μM human Angiotensin II (A9525, Sigma Aldrich), 50 μM telmisartan, compounds 1, 3, and 8, or the combinations. Images were taken before addition of the treatment (0 min) and after 2 min of treatment on Zeiss PALM MicroBeam Axio Observer Z1 microscope (Carl Zeiss MicroImaging GmbH, Oberkochen, Germany) with Zeiss LD Plan-Neofluar 20×/0.4 Korr, ∞/0–1.5 mm lens and AxioVision SE64 Rel.4.9.1 software. Experiment was repeated three times. Integrated density of Fluo-4 fluorescence at 2 min of exposure to treatment was calculated with Image J, and normalized to the baseline fluorescence at time 0, in at least two random fields for each condition. Conditions were compared with one-way ANOVA and Tukey’s multiple comparisons test. p < 0.05 was considered statistically significant.

A375 cells [5] = assay: Cell cycle distribution (PI, flow cytometry), A375; conditions: A375, 25 µM, 72 h
Experimental: A375 and A375R cells were seeded in 6-well plates at a density of 150,000 cells per well. On the following day, the cells were treated with 25 µM concentrations of compounds 1, 3, and 8, as well as telmisartan. After 72 h of incubation, the cells were harvested using trypsin, washed with phosphate-buffered saline (PBS), fixed in ethanol, and stored at −20 °C until analysis. Ethanol-fixed cells were treated with RNase A (1 mg/mL) and stained with propidium iodide (PI; 400 µg/mL). A total of 20,000 events were recorded per sample. Quantitative analysis of the cell cycle phase distribution was performed by flow cytometry using a FACSCalibur flow cytometer (Becton Dickinson, San Jose, CA, USA) and BD CellQuest Pro Version 5.2.1 software. Experiment was performed three times. Cells under treatment were compared to controls for each cell phase separately with one-way ANOVA and Dunnett’s multiple comparison tests. p < 0.05 was considered statistically significant.

A375 cells [6] = assay: Mitochondrial morphology staining (MitoTracker Green FM); conditions: A375, 25 μM, 24 h
Experimental: For imaging of the mitochondrial morphology in live cells, A375 cells seeded in 96-well optical bottom plates, as above, were treated for 24 h with 25 μM telmisartan, compound 1, 3, or 8. Treatment was washed away, and cells were stained with 500 nM MitoTracker Green FM (#9074, Cell signaling Technology, Danvers, MA, USA) in RPMI without serum for 30 min at 37 °C. Cells were imaged on Zeiss PALM MicroBeam Axio Observer Z1 microscope (Carl Zeiss MicroImaging GmbH, Oberkochen, Germany) with Zeiss LD Plan-Neofluar 20×/0.4 Korr, ∞/0–1.5 mm lens and AxioVision software. Mitochondrial shape was quantified in images from two biological experimental repeats, in three random fields for each condition, using Image J Analyze Particles function. Images were first processed to 8-bit binary, and circularity and aspect ratio (major axis/minor axis) were calculated and plotted with Prism 9 (GraphPad Software, LLC, Boston, MA, USA). Treatments were compared with untreated control using one-way ANOVA and Dunnett’s multiple comparisons test. p < 0.05 was considered statistically significant.

| Structure (SMILES) | Effect on cell viability at single concentration (A375 cells [1]) | IC50 (A375 cells [1]) | IC50 (A375R cells) | IC50 [2] | IC50 [3] | Compound accumulation normalized to telmisartan, Chromatin Bound (A375 cells [4]) | Compound accumulation normalized to telmisartan, Cytoplasm (A375 cells [4]) | Compound accumulation normalized to telmisartan, Cytoskeleton (A375 cells [4]) | Compound accumulation normalized to telmisartan, Membrane (A375 cells [4]; membrane fraction) | Compound cell accumulation normalized to telmisartan, Whole Lysate (A375 cells [4]) | Effect on AngII-induced Ca2+ increase (combination treatment) (AT1R) | Effect of compound alone on baseline Ca2+ signaling (AT1R) | Cell cycle distribution (A375 cells [5]) | Mitochondrial network morphology (A375 cells [6]) | Selectivity (A375R cells; A375R versus normal cell lines (HaCaT, MRC-5), from IC50 values) | Accumulation in the membrane fraction (A375 cells [4]; membrane fraction) |
| --- | --- | --- | --- | --- | --- | --- | --- | --- | --- | --- | --- | --- | --- | --- | --- | --- |
| CCCc1nc2c(C)cc(-c3nc4ccccc4n3C)cc2n1Cc1ccc(-c2ccccc2C(=O)NC(Cc2ccc(O)cc2)C(=O)O)cc1 (centres unmarked) [compound 3, 2-{[4′-(1,7′-dimethyl-2′-propyl-1H-[2,5′]bibenzoimidazolyl-3′-ylmethyl)-biphenyl-2-carbonyl]-amino}-3-(4-hydroxy-phenyl)-propionic acid] | significant reductions in cell viability | 32.1 ± 2.38 µM | 21.1 ± 6.31 µM | 63.46 ± 0.23 µM | 50.74 ± 0.28 µM | 0.52 | 3.64 | 0.69 | 4.62 | 4.57 | did not prevent AngII-induced Ca^2+ increase | no significant changes in the baseline Ca^2+ signaling | increased accumulation of cells in the subG1 phase, albeit not statistically significant | disrupted the mitochondrial network to a greater extent than telmisartan |  |  |
| CCCc1nc2c(C)cc(-c3nc4ccccc4n3C)cc2n1Cc1ccc(-c2ccccc2C(=O)NC(Cc2ccccc2)C(=O)O)cc1 (centres unmarked) [compound 8, 2-{[4′-(1,7′-dimethyl-2′-propyl-1H-[2,5′]bibenzoimidazolyl-3′-ylmethyl)-biphenyl-2-carbonyl]-amino}-3-phenyl-propionic acid] | significant reductions in cell viability | 27.2 ± 0.58 µM | 8.84 ± 1.24 µM | 70.8 ± 6.99 µM | 31.5 ± 5.87 µM | 11.90 | 11.17 | 7.44 |  | 4.41 | did not prevent AngII-induced Ca^2+ increase | no significant changes in the baseline Ca^2+ signaling | increased accumulation of cells in the subG1 phase, albeit not statistically significant | dramatic fission and clumping of mitochondria | > 3.50 | 26.814 µmol/L |
